The values below come from patent US20080227806A1, “Novel Drugs for Dementia” (AMERICAN LIFE SCIENCE PHARMACEUTICALS, priority 2005, published 2008).

Where “and” joins values, the source holds several entries; their conditions need not be identical. Equal values may be shown once.

For one data set, the system named is total Aβ (Ab40 and Ab42). Briefly: Brain total Aβ by ELISA after icv infusion into guinea pig brains. Type of data set: in vivo. The conditions noted are these: constant icv infusion, 1 mg/ml. From the text: (§1) In vivo icv administration of protease inhibitors into guinea pig brains. Guinea pigs (Harley strain, 300-500 grams) were obtained from Charles River (Wilmington, Mass.). The animals were given free access to food and water before and during the experiment. An ALZET osmotic mini-pump (ALZET company, Cupertino, Calif.) was implanted subcutaneously in the mid-scapular area of the back of each animal. A catheter was connected to the osmotic mini-pump and inserted into the lateral ventricle of the brain (using a brain infusion kit manufactured by ALZET).
(§2) E64d or CA074Me (from CalBiochem, San Diego, Calif.) were each administered to guinea pig brains by icv minipump infusion at a rate of […] with each compound at 1 mg/ml in saline (with 1.5% DMSO). Each e64d and control group consisted of five animals; each CA074Me and control group consisted of ten animals. Continuous infusion was conducted for 7 days and 30 days. At the end of each infusion period, animals were sacrificed and half the brain was prepared as extracts for ELISA measurement of Aβ peptide levels conducted in triplicate with Ab ELISAs (from Biosource International). The other half brain was used for isolation of synaptosome preparations and Ab analyses.
(§3) Brain Extracts. Brain extracts were prepared by subjecting fresh tissues to homogenization at 1:10 w/v in guanidine buffer consisting of 5 M guanidine-HCl in 50 mM Tris-HCl, pH 8.3 (buffer reagents from Sigma-Aldrich, St. Louis, Mo.). Homogenates were agitated at room temperature for 3-4 hours, then stored at −20° C. The day before the ELISA assay, the tissue samples were diluted further by 1:10 for a final guanidine concentration of 0.5 M. These diluted homogenates were then centrifuged at 14,000 rpm for 20 minutes at 4° C. and supernatants were collected for measurement of total Ab, and Aβ40 and Aβ42 separately, by ELISA assay. Isolation of synaptosomes from brain. Synaptosomes were prepared by homogenization of fresh brain tissue in isotonic sucrose (320 mM), pH 7.4, 1 mM EDTA, 0.25 mM dithiothreitol, and 30 U/ml RNAse inhibitor. […] For quantitation of Aβ peptides, ELISA assays were used to measure Aβ levels. […] CTFβ fragments derived from APP were analyzed by western blots with antibody MAB 1560 (Chemicon, Temecula, Calif.). The sAPPα fragment derived from APP was analyzed by western blots with antibody MAB 343 (Chemicon, Temecula, Calif.). […]
(§4) Data Analyses. Data were analyzed by one-way analysis of variance for analyses of statistical significance of the effects of compounds on Ab levels, with p<0.05 indicating statistical significance, using GraphPad Prism software program. Following ANOVA analyses among treatment groups, individual group values for Ab levels were analyzed using Dunnett's multiple comparison test. […]

For a further data set, the system named is Aβ40. Briefly: Brain Aβ40 by specific ELISA after icv infusion. Type of data set: in vivo. As to conditions: guinea pig, 7 days.
From the text: (§5) In vivo icv administration of protease inhibitors into guinea pig brains. Guinea pigs (Harley strain, 300-500 grams) were obtained from Charles River (Wilmington, Mass.). The animals were given free access to food and water before and during the experiment. An ALZET osmotic mini-pump (ALZET company, Cupertino, Calif.) was implanted subcutaneously in the mid-scapular area of the back of each animal. A catheter was connected to the osmotic mini-pump and inserted into the lateral ventricle of the brain (using a brain infusion kit manufactured by ALZET). […]
(§6) Brain Extracts. […] For quantitation of Aβ peptides, ELISA assays were used to measure Aβ levels. […] CTFβ fragments derived from APP were analyzed by western blots with antibody MAB 1560 (Chemicon, Temecula, Calif.). The sAPPα fragment derived from APP was analyzed by western blots with antibody MAB 343 (Chemicon, Temecula, Calif.). […]
as §4
(In general: An ELISA detects its analyte on a solid surface through an enzyme-linked reagent.)

The subject of another data set is Aβ42. Briefly: Brain Aβ42 by specific ELISA after icv infusion. Type of data set: in vivo. The conditions noted are these: guinea pig, 7 days.
From the text: as §5, §6, §4

In the next data set the test system is synaptosome Aβ. Briefly: Synaptosome total Aβ by ELISA after icv infusion. As to conditions: guinea pig. Type of data set: in vivo.
From the text: as §1, §2, §3, §4

The test system of the next data set is CTFβ. Briefly: Brain CTFβ by western blot densitometry after icv infusion. Type of data set: in vivo. The conditions noted are these: guinea pig, 7 days, densitometric scanning of western blots.
From the text: as §5, §6, §4
(In general: In western blotting, separated proteins are transferred to a membrane and probed.)

The subject of a further data set is sAPPα. Briefly: Brain sAPPα by western blot densitometry after icv infusion. Type of data set: in vivo. As to conditions: guinea pig, 7 days, densitometric scanning of western blots.
From the text: as §5, §6, §4

The conditions of data set [1]: rats, high dose; cited from earlier work.
The conditions of data set [2]: Japan; cited from earlier work.
The conditions of data set [3]: Phase III study; cited from earlier work.
In the next data set the test system is hippocampus neurons. As to conditions: primate ischemic animal model; cited from earlier work.

On to `CCCNC(=O)[C@H]1O[C@@H]1C(=O)N[C@H](C(=O)N1CCC[C@H]1C(=O)OC)[C@@H](C)CC` [CA074Me, L-Proline, N[[(2S,3S)3[(propylamino)carbonyl]oxiranyl]carbonyl]-L-isoleucyl-, methyl ester], for which the “reduction of brain total Aβ relative to control” value in the data set on total Aβ (Ab40 and Ab42) (7 days) is listed as 57%; in the data set on total Aβ (Ab40 and Ab42) (30 days), 62%. Also, in the data set on Aβ40, the “reduction of Aβ40 in brain extracts” value turned out to be 47%. In addition, the “reduction of Aβ42 in brain” value with Aβ42 is 56%. For the same compound, the “reduction of synaptosome Aβ relative to controls” value was 62% in the data set on synaptosome Aβ (7 days) and 74% with synaptosome Aβ (30 days). The “reduction in brain CTFβ relative to controls” value with CTFβ was 45% and 44%. Besides, the “increase in brain sAPPα above control” value with sAPPα was found to be 60%.

Turning to `CCOC(=O)[C@H]1O[C@@H]1C(=O)N[C@@H](CC(C)C)C(=O)NCCC(C)C` [E64d, oxiranecarboxylic acid, 3-[[[(1S)-3-methyl-1-[[(3-methylbutyl)amino]carbonyl]butyl]amino]carbonyl], ethyl ester], the “reduction of brain total Aβ relative to control” value with total Aβ (Ab40 and Ab42) (7 days) stood at 31%; in the data set with total Aβ (Ab40 and Ab42) (30 days), 55%. Further, the entries for the “reduction of synaptosome Aβ relative to controls” value in the data set on synaptosome Aβ (7 days) and with synaptosome Aβ (30 days) were 27% and 50%, respectively. In data set [1], the liver toxicity entry is listed as “liver toxicity was found”. The “Phase I clinical trial outcome” value in data set [2] is recorded as “successfully passed Phase I clinical trials”. Also, the “efficacy for muscular dystrophy” value in [3] is “low efficacy for muscular dystrophy”.

Turning to `CC(C)CCNC(=O)C(CC(C)C)NC(=O)C1OC1C(=O)O` (centres unmarked) [e64c, 3-[3-methyl-1-(3-methyl-butylcarbamoyl)-butylcarbamoyl]-oxirane-2-carboxylic acid], the “protection of brain neurons during ischemia” value in the data set with hippocampus neurons is “protect hippocampus neurons from damage”.

With `CCCNC(=O)C1OC1C(=O)NC(C(=O)N1CCCC1C(=O)O)C(C)CC` (centres unmarked) [CA074, 1-{3-methyl-2-[(3-propylcarbamoyl-oxiranecarbonyl)-amino]-pentanoyl}-pyrrolidine-2-carboxylic acid], the “protection of brain neurons during ischemia” value in the data set on hippocampus neurons was “protect hippocampus neurons from damage”.
